Measured values published in patent publication US11993574B2, “Pyrazole and imidazole compounds for inhibition of IL-17 and RORgamma” (REATA PHARMACEUTICALS, INC., priority 2018, dated 2024).

Assays:
Format in all cases: cell-based
[1] = target: T1, Human RAR-related Orphan Receptor Gamma (RORγ) (Homo sapiens, UniProt P51449); assay: RORγ assay (GAL4-RORγ hybrid luciferase reporter, Indigo Biosciences); conditions: inverse-agonist activity, GAL4-RORγ reporter cells, 23 hours
T1 sequence (P51449 269-508 limits assumed): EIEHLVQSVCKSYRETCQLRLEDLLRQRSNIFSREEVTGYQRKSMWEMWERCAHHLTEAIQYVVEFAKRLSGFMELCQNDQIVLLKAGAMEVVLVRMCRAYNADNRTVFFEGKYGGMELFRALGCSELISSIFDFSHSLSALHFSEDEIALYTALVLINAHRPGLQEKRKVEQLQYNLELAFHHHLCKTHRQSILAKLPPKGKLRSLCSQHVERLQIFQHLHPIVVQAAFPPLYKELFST
Description: B. RORγ Assay and Cell Viability
The RORγ assay system was purchased from Indigo Biosciences. This nuclear receptor assay utilizes a human cell line that has been engineered to express a hybrid form of the Human RAR-related Orphan Receptor Gamma (RORγ) at high levels. The N-terminal DNA binding domain (DBD) of the native RORγ receptor was substituted with the yeast GAL4-DBD to generate the GAL4-RORγ hybrid nuclear receptor. The reporter cell line is transfected with a plasmid that encodes the beetle luciferase gene under the control of the GAL4 upstream activating sequence (UAS). GAL4 binds to the UAS and increases transcription of downstream target genes. The GAL4-RORγ hybrid is constitutively active; therefore, the principle application of this reporter assay system is to screen test compounds to quantify inverse-agonist activities against human RORγ. Because the ligand binding domain (LBD) of RORγ is identical to the LBD of RORγt, this assay is an accurate surrogate for evaluating activity of experimental ligands against RORγt. To assess the RORγ inverse-agonist activity of the test compounds, reporter cells were plated in white 96-well plates in triplicate and were treated with DMSO (vehicle) or test compound (concentration ranges of 7.8-2000 nM) at 37° C. with 5% CO2 in a humidified atmosphere for 23 hours. After this incubation, luciferin was added to the wells and luciferase activity was determined by measuring the luminescence signal using a BMG Pherastar microplate reader. Viability was determined using the Live Cell Multiplex Assay (Indigo Biosciences). Values from test compound samples were normalized to those from DMSO-treated samples. Data were analyzed using GraphPad Prism version 6.00 for Windows (GraphPad Software, La Jolla Calif. USA). A non-linear regression analysis with log (inhibitor) vs. normalized response using a variable slope was applied to fit the data and determine the IC50 values for inhibition of RORγ and cell viability. Inhibition that is closely correlated with reduced viability is considered to be non-specific.

[2] = test system: Nrf2 transcription factor; assay: AREc32 luciferase reporter assay; conditions: Homo sapiens; AREc32 cells, 19 hours; concentration required to increase GST ARE luciferase reporter activity by 2-fold; read-out: NRF2 ARE 2-Fold (EC2×)
Description: A. AREc32 Luciferase Reporter Assay
The AREc32 luciferase reporter assay allows for quantitative assessment of the endogenous activity of the Nrt2 transcription factor in cultured mammalian cells. AREc32 cells are derived from MCF-7 human breast carcinoma cells that were stably transfected with a reporter construct that contains the firefly luciferase gene located downstream of eight copies of the rat GSTA2 antioxidant response element (ARE) sequence (Wang et al., 2006; Concept Life Sciences Integrated Discovery and Development Services Ltd (CLSIDDS)). Active Nrf2 binds to the ARE sequences and increases expression of the firefly luciferase gene. To assess the Nrf2-activating potential of the test compounds, AREc32 cells were plated in black […] plates at a density of 20,000 cells per well in triplicate in DMEM+10% FBS+0.8 mg/mL Geneticin and incubated at 37° C. with 5% CO2 in a humidified atmosphere. The next day, cells were treated with DMSO (vehicle) or test compound (concentration ranges of 0.4-200 nM or 3.9-2000 nM) for 19 hours. Luciferase activity was determined using the ONE-Glo Luciferase assay (Promega). The luminescence signal was measured on a BMG Pherastar microplate reader. The mean luminescence value from test compound-treated wells was normalized to that from DMSO-treated wells and was represented as fold-induction. Data were analyzed using GraphPad Prism version 6.00 for Windows, GraphPad Software, La Jolla Calif. USA. A non-linear regression curve with log (agonist) vs. response using a variable slope was used to fit the data. Where applicable, a maximum threshold value of 50-fold over DMSO was set. EC2× values were interpolated from the curve. EC2× corresponds to the concentration of test compound required to increase GST ARE Luciferase reporter activity by 2-fold.

IL-17A = assay: IL-17 release from differentiated primary human T-cells (IL-17A HTRF assay); conditions: primary human CD4+ T cells differentiated into Th17 cells, 45-hour incubation, IL-17A in supernatant; read-out: hIL17 IC50
Procedure: C. IL-17 Release from Differentiated Primary Human T-Cells and Cell Viability
Primary human cryopreserved CD4+ T Cells (Lonza) were thawed according to the manufacturer's recommendations and plated either in Lymphocyte Growth Medium-3 (LGM-3) or X-VIVO 20 media (Lonza) in 96-well tissue culture plates at a density of ˜2×10^5 cells per well, and allowed to recover for approximately 4 hours at 37° C. with 5% CO2 in a humidified atmosphere. After the recovery step, DMSO (vehicle) or test compound at doses ranging from 2 to 500 nM or 4 to 1000 nM in a three-fold dilution series was added to the cells. Three replicate wells were tested for each treatment condition. Final DMSO concentration in each well was 0.1%. Immediately after treatment, CD4+ T cells were activated by adding Dynabeads Human T-Activator CD3/CD28 (Life Technologies; bead-to-cell ratio of 1:2.5) and differentiated into Th17 cells by adding a mixture of the following cytokines: transforming growth factor-β (TGF-β, 5 ng/mL), IL-6 (20 ng/mL), IL-23 (20 ng/mL), and IL-1β (10 ng/mL). Undifferentiated control cells received only cytokine IL-2 (50 ng/mL). All human recombinant cytokines were purchased from R&D Systems. Following a 45-hour incubation at 37° C. with 5% CO2 in a humidified atmosphere, the plates were centrifuged for 3 minutes at 250×g, and half of the supernatant was transferred to anew plate to be used in the IL-17A assay (see below). Cell viability was assessed in the original plate using the CyQuant Direct Assay (Life Technologies). CyQuant reagent (an amount equal to 10% of remaining media volume) was added to the wells, and the plates were then incubated at 37° C. for 75 min. Fluorescence was read on a SpectraMax M2e spectrophotometer at 480 nm (excitation) and 535 nm (emission) wavelengths. CyQuant values from test compound samples were normalized to those from DMSO-treated samples. The concentration of IL-17A in the supernatant was measured using the Homogeneous Time-Resolved Fluorescence (HTRF) assay (Cisbio Bioassays) according to the manufacturer's protocol. The assay was performed at room temperature in low volume, solid white 384-well plates (Greiner Bio-One). Samples and standards (serially-diluted human recombinant IL-17A (0 to 5,000 pg/mL concentration range; Cisbio Bioassays) were incubated with the anti-human IL-17A antibody conjugates (the HTRF donor and acceptor pair) for 16 hours and fluorescence was measured using a Pherastar FS microplate reader (BMG Labtech) in the HTRF mode (excitation at 337 nm and emission at 665 nm and 620 nm). IL-17A levels were assessed in duplicate aliquots of supernatant from each well resulting in a total of six readings per test condition. The 665 nm/620 nm signal ratio was calculated and the concentration of IL-17A in each sample was determined by interpolation from the standard curve. The amount of IL-17A from test compound treated samples were normalized to that of the vehicle-treated samples, set to 100%. Data were analyzed using GraphPad Prism (GraphPad Software, La Jolla California USA). Concentrations of test compound were transformed by taking the logarithm of each concentration used. The IC50 values for compound-mediated reduction in IL-17A levels and cell viability were determined by non-linear regression analysis using the log(inhibitor) vs. normalized response with variable slope equation. Inhibition that is closely correlated with reduced viability is considered to be non-specific.

SMILES	IC50 [1] [nM]	EC (2-fold) [2] [µM]	IC50 (IL-17A) [nM]
C[C@H]1C(=O)C(C#N)=C[C@@]2(C)c3nn(-c4ccc(Cl)c(Cl)c4)c(-c4ccccc4)c3CC[C@H]12 [T117]	114	0.834	107
C[C@H]1C(=O)C(C#N)=C[C@@]2(C)c3c(c(-c4ccccc4)nn3Cc3ccccc3)CC[C@H]12 [T5]	136	0.587	119
Cc1ccc(-n2nc(-c3ccccc3)c3c2[C@]2(C)C=C(C#N)C(=O)[C@H](C)[C@H]2CC3)cc1 [T12]	55	0.135	76
COc1ccc(-n2nc3c(c2-c2ccccc2)CC[C@@H]2[C@@H](C)C(=O)C(C#N)=C[C@@]32C)cc1 [T116]	80	0.483	191
C[C@H]1C(=O)C(C#N)=C[C@@]2(C)c3c(c(-c4ccccc4)nn3C3CCS(=O)(=O)C3)CC[C@H]12 (some centres unmarked) [T29]	470	0.837	
C[C@H]1C(=O)C(C#N)=C[C@@]2(C)c3nc(Cc4ccccc4)n(-c4cccc(F)c4)c3CC[C@H]12 [T140]	113	1.27	288
CC(=O)n1c(-c2ccc(C(C)C)cc2)nc2c1CC[C@@H]1[C@@H](C)C(=O)C(C#N)=C[C@@]21C [T174]	1600	0.923	368
CC(C)c1ccc(-n2nc(-c3ccccc3)c3c2[C@]2(C)C=C(C#N)C(=O)[C@H](C)[C@H]2CC3)cc1 [T25]	92	0.149	28
C[C@H]1C(=O)C(C#N)=C[C@@]2(C)c3c(c(N4CCOCC4)nn3-c3ccc(-c4ccccc4)cc3)CC[C@H]12 [T77]	111	0.908	68
C[C@H]1C(=O)C(C#N)=C[C@@]2(C)c3nn(-c4ccc(-c5ccccc5)cc4)c(-c4ccccc4)c3CC[C@H]12 [T22]	175	1.05	56
C[C@H]1C(=O)C(C#N)=C[C@@]2(C)c3c(c(-c4ccc(CF)cc4)nn3-c3ccc(-c4ccccc4)cc3)CC[C@H]12 [T74]	111	0.182	16
C[C@H]1C(=O)C(C#N)=C[C@@]2(C)c3c(c(-c4ccc(F)cc4)nn3-c3ccc(-c4ncon4)cc3)CC[C@H]12 [T183]	113	0.526	68
Cc1noc(-c2ccc(-n3nc(-c4ccccc4F)c4c3[C@]3(C)C=C(C#N)C(=O)[C@H](C)[C@H]3CC4)cc2)n1 [T95]	62	0.185	40
Cc1ccccc1-c1ccc(-n2nc(-c3ccccc3)c3c2[C@]2(C)C=C(C#N)C(=O)[C@H](C)[C@H]2CC3)cc1 [T44]	83	0.242	41
Cc1cc(-c2ccc(-n3nc(-c4cccnc4)c4c3[C@]3(C)C=C(C#N)C(=O)[C@H](C)[C@H]3CC4)cc2)cnn1 [T102]	90	0.918	56
C[C@H]1C(=O)C(C#N)=C[C@@]2(C)c3nc(-c4ccncc4)n(-c4ccccc4)c3CC[C@H]12 [T112]	264	0.563	
C[C@H]1C(=O)C(C#N)=C[C@@]2(C)c3c(c(-c4ccncn4)nn3-c3ccc(C4CC4)cn3)CC[C@H]12 [T62]	284	0.691	
C[C@H]1C(=O)C(C#N)=C[C@@]2(C)c3c(c(-c4ccccc4)nn3-c3ccc(C(=O)O)cc3)CC[C@H]12 [T52]	> 2000	> 2	
C[C@H]1C(=O)C(C#N)=C[C@@]2(C)c3nn(C4CCS(=O)(=O)C4)c(-c4ccccc4)c3CC[C@H]12 (some centres unmarked) [T30]	143	0.462	
C[C@H]1C(=O)C(C#N)=C[C@@]2(C)c3c(c(-c4ccccc4)nn3-c3cccc(Br)c3)CC[C@H]12 [T33]	89	0.29	
C[C@H]1C(=O)C(C#N)=C[C@@]2(C)c3nc(-c4ccccc4)n(-c4nnn(C)n4)c3CC[C@H]12 [T111]	768	0.59	
